Results on one cell line are retold here after the supplement of paper PMC10307832.

Assay in all cases: relative viability (nuclei count vs DMSO), 5 days (fraction); higher = more cells survive
Compound in experiment [1]: C1COCCN1C2=NC(=NC3=C2OC4=C3C=CC=N4)C5=CC(=CC=C5)NC(=O)C6=CN=C(C=C6)N + C[C@@H](Oc1cc(-c2cnn(C3CCNCC3)c2)cnc1N)c1c(Cl)ccc(F)c1Cl [Crizotinib] (partner 1 µM)
The method, boiled down: (§1)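 Lung cancer cell lines in 1536-well plates got either a single drug or a fixed anchor-drug dose together with five library-drug doses (not always all listed) in √10 steps, by pin tool, on the day after seeding. Nuclei were counted after 5 days, and relative viability is the treated-to-vehicle ratio of nuclei counts. Values are medians of duplicate plates.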

Compound in experiment [2]: C1COCCN1C2=NC(=NC3=C2OC4=C3C=CC=N4)C5=CC(=CC=C5)NC(=O)C6=CN=C(C=C6)N + C[C@]1(O)C[C@@H](c2nc(-c3ccc4ccc(-c5ccccc5)nc4c3)c3c(N)nccn32)C1 [Linsitinib] (partner 1 µM)
The method, boiled down: as §1

Compound in experiment [3]: C1COCCN1C2=NC(=NC3=C2OC4=C3C=CC=N4)C5=CC(=CC=C5)NC(=O)C6=CN=C(C=C6)N + Cc1nc(NC(=O)N2CCC[C@H]2C(N)=O)sc1-c1ccnc(C(C)(C)C(F)(F)F)c1 [Alpelisib] (partner 2 µM)
The method, boiled down: as §1

Compound in experiment [4]: C1COCCN1C2=NC(=NC3=C2OC4=C3C=CC=N4)C5=CC(=CC=C5)NC(=O)C6=CN=C(C=C6)N + O=C(c1cc(Cc2n[nH]c(=O)c3ccccc23)ccc1F)N1CCN(C(=O)C2CC2)CC1 [Olaparib] (partner 8 µM)
The procedure, abridged:
as §1

Consider SW 1573, for which the relative viability in experiment [1] (first compound 0.02 µM) worked out at 0.89; in experiment [1] (first compound 0.06325 µM), 0.812; in experiment [1] (first compound 0.2 µM), 0.721; in experiment [1] (first compound 0.6325 µM), 0.743; in experiment [1] (first compound 2 µM), 0.659; in experiment [2] (first compound 0.02 µM), 0.75. In addition, the relative viability in experiment [2] (first compound 0.06325 µM) stood at 0.743; in experiment [2] (first compound 0.2 µM) it was 0.824; in experiment [2] (first compound 0.6325 µM) it was 0.756; in experiment [2] (first compound 2 µM) it was 0.544; in experiment [3] (first compound 0.02 µM), 0.659; in experiment [3] (first compound 0.06325 µM), 0.912. Further, the relative viability in experiment [3] (first compound 0.2 µM) was found to be 0.734; in experiment [3] (first compound 0.6325 µM) it was 0.699; in experiment [3] (first compound 2 µM), 0.576; in experiment [4] (first compound 0.02 µM), 0.488; in experiment [4] (first compound 0.06325 µM) it was 0.508; in experiment [4] (first compound 0.2 µM), 0.439. Further, the relative viability is 0.459 in experiment [4] (first compound 0.6325 µM) and 0.36 in experiment [4] (first compound 2 µM).
